Experimental data reported in patent US5151417A, “3-substituted vinyl cephalosporin derivatives” (Eisai Co., Ltd., priority 1989, dated 1992).
≈ marks a conversion by molar mass, not a printed value. Like-named read-outs stand apart in the source and are kept apart here.

Columns and labels:
Assay type in all cases: cell-based
[1] = tested on: Morganella morganii EP-14; assay: In vitro antibacterial activity, Morganella morganii EP-14 (Tables 2-6)
Experimental: (§1) Typical compounds out of the compounds described in Examples were classified into some groups. On each compound group, in vitro antibacterial activities were tested by a method known per se in the art.

[2] = tested on: Staphylococcus aureus 209-P; assay: In vitro antibacterial activity, Staphylococcus aureus 209-P (Tables 2-6)
Experimental: as §1

Escherichia coli NIHJ = assay: In vitro antibacterial activity, Escherichia coli NIHJ (Tables 2-6)
Experimental: as §1

[3] = tested on: Klebsiella pneumoniae EK-6; assay: In vitro antibacterial activity, Klebsiella pneumoniae EK-6 (Tables 2-6)
Experimental: as §1

[4] = tested on: Serratia marcescens ES-75; assay: In vitro antibacterial activity, Serratia marcescens ES-75 (Tables 2-6)
Experimental: as §1

[5] = Staphylococcus aureus, 209P, Staphylococcus aureus 209-P, read-out: MIC
[6] = Escherichia coli, Escherichia coli NIHJ, read-out: MIC
[7] = Klebsiella pneumoniae, EK6, Klebsiella pneumoniae EK-6, read-out: MIC
[8] = Morganella morganii, EP14, Morganella morganii EP-14, read-out: MIC
[9] = Serratia marcescens, ES75, Serratia marcescens ES-75, read-out: MIC

Row | Structure (SMILES) | MIC [2, 5] | MIC (Escherichia coli NIHJ; [6]) | MIC [3, 7] | MIC ([1]; Morganella morganii, EP14) | MIC ([2]; Staphylococcus aureus, 209P) | MIC (Escherichia coli NIHJ; Escherichia coli) | MIC ([3]; Klebsiella pneumoniae, EK6) | MIC ([4]; Serratia marcescens, ES75) | further results
1 | CO/N=C(\C(=O)N[C@@H]1C(=O)N2C(C(=O)O)=C(/C=C/C3CCCO3)CS[C@H]12)c1csc(N)n1 (single isomer, unassigned) [48 A] | 0.4 µg/mL (≈ 0.834 µM) | 0.4 µg/mL (≈ 0.834 µM) | 0.2 µg/mL (≈ 0.417 µM) |  |  |  |  |  | MIC ([1]; Morganella morganii EP-14): 0.025 µg/mL (≈ 0.0521 µM); MIC ([4]; Serratia marcescens ES-75): 0.025 µg/mL (≈ 0.0521 µM)
2 | CO/N=C(\C(=O)N[C@@H]1C(=O)N2C(C(=O)O)=C(/C=C/C3CCCO3)CS[C@H]12)c1csc(N)n1 (single isomer, unassigned) [48 B] |  |  |  |  |  |  |  |  | MIC ([1]; Morganella morganii EP-14): 0.2 µg/mL (≈ 0.417 µM); MIC ([2]; Staphylococcus aureus 209-P): 0.8 µg/mL (≈ 1.67 µM); MIC (Escherichia coli NIHJ; Escherichia coli NIHJ): 0.8 µg/mL (≈ 1.67 µM); MIC ([3]; Klebsiella pneumoniae EK-6): 0.4 µg/mL (≈ 0.834 µM); MIC ([4]; Serratia marcescens ES-75): 0.1 µg/mL (≈ 0.209 µM)
3 | Nc1nc(/C(=N/O)C(=O)N[C@@H]2C(=O)N3C(C(=O)O)=C(/C=C/C4CCCO4)CS[C@H]23)cs1 (single isomer, unassigned) [50 A] | 0.1 µg/mL (≈ 0.215 µM) |  | 0.2 µg/mL (≈ 0.43 µM) |  |  |  |  |  | MIC ([1]; Morganella morganii EP-14): 0.05 µg/mL (≈ 0.107 µM); MIC (Escherichia coli NIHJ; Escherichia coli NIHJ): 0.2 µg/mL (≈ 0.43 µM); MIC ([4]; Serratia marcescens ES-75): 0.1 µg/mL (≈ 0.215 µM)
4 | Nc1nc(/C(=N/O)C(=O)N[C@@H]2C(=O)N3C(C(=O)O)=C(/C=C/C4CCCO4)CS[C@H]23)cs1 (single isomer, unassigned) [50 B] |  |  |  |  |  |  |  |  | MIC ([1]; Morganella morganii EP-14): 0.2 µg/mL (≈ 0.43 µM); MIC ([2]; Staphylococcus aureus 209-P): 0.1 µg/mL (≈ 0.215 µM); MIC (Escherichia coli NIHJ; Escherichia coli NIHJ): 0.8 µg/mL (≈ 1.72 µM); MIC ([3]; Klebsiella pneumoniae EK-6): 0.4 µg/mL (≈ 0.859 µM); MIC ([4]; Serratia marcescens ES-75): 0.4 µg/mL (≈ 0.859 µM)
5 | CO/N=C(\C(=O)N[C@@H]1C(=O)N2C(C(=O)O)=C(/C=C\c3cncnc3)CS[C@H]12)c1csc(N)n1 [Example 14] | 0.8 µg/mL (≈ 1.64 µM) | 0.4 µg/mL (≈ 0.82 µM) | 0.2 µg/mL (≈ 0.41 µM) |  |  |  |  |  | MIC [1, 8]: 0.05 µg/mL (≈ 0.103 µM); MIC [4, 9]: 0.8 µg/mL (≈ 1.64 µM)
6 | Nc1nc(/C(=N/O)C(=O)N[C@@H]2C(=O)N3C(C(=O)[O-])=C(/C=C\c4cncnc4)CS[C@H]23)cs1.[Na+] [Example 16, Sodium 7β-[(Z)-2-(2-aminothiazol-4-yl)-2-(hydroxyimino)acetamido]-3-[(Z)-2 (pyrimidin-5-yl)vinyl]-3-cephem-4-carboxylate] |  |  |  | 0.012 µg/mL | 0.2 µg/mL | 0.1 µg/mL | 0.05 µg/mL | > 100 µg/mL | 
7 | Cc1ncc(/C=C\C2=C(C(=O)O)N3C(=O)[C@@H](NC(=O)/C(=N\O)c4csc(N)n4)[C@H]3SC2)cn1 [Example 21] | 0.2 µg/mL (≈ 0.41 µM) | 0.2 µg/mL (≈ 0.41 µM) | 0.1 µg/mL (≈ 0.205 µM) |  |  |  |  |  | MIC [1, 8]: 0.025 µg/mL (≈ 0.0513 µM); MIC [4, 9]: 0.2 µg/mL (≈ 0.41 µM)
8 | Nc1nc(/C(=N/O)C(=O)N[C@@H]2C(=O)N3C(C(=O)[O-])=C(/C=C/c4cncnc4N)CS[C@H]23)cs1.[Na+] [Example 23, Sodium 7β[(Z)-2-(2-aminothiazol-4-yl)-2-(hydroxyimino)acetamido]-3-[(E)-2-(4-aminopyrimidin-5-yl)vinyl]-3-cephem-4-carboxylate] |  |  |  | 0.012 µg/mL | 0.2 µg/mL | 0.4 µg/mL | 0.025 µg/mL | > 100 µg/mL | 
9 | COc1ncncc1/C=C\C1=C(C(=O)[O-])N2C(=O)[C@@H](NC(=O)/C(=N\O)c3csc(N)n3)[C@H]2SC1.[Na+] [Example 25, Sodium 7β-[(Z)-2-(2-aminothiazol-4-yl)-2-(hydroxyimino)acetamido]-3-[(Z)-2-(4-methoxypyrimidin-5-yl)vinyl]-3-cephem-4-carboxylate] |  |  |  | 0.1 µg/mL | 0.2 µg/mL | 0.8 µg/mL | 0.4 µg/mL | 0.2 µg/mL | 
10 | CO/N=C(\C(=O)N[C@@H]1C(=O)N2C(C(=O)[O-])=C(/C=C/c3cnccn3)CS[C@H]12)c1csc(N)n1.[Na+] [Example 27, Sodium 7β-[(Z)-2-(2-aminothiazol-4-yl)-2-(methoxyimino)acetamido]-3-[(E)-2-(pyrazin-2-yl)vinyl]-3-cephem-4-carboxylate] |  |  |  | 0.05 µg/mL | 0.8 µg/mL | 0.2 µg/mL | 0.1 µg/mL | 0.05 µg/mL | 
11 | CO/N=C(\C(=O)N[C@@H]1C(=O)N2C(C(=O)O)=C(/C=C/c3c(Cl)ncnc3Cl)CS[C@H]12)c1csc(N)n1 [Example 29 (E)] |  |  |  |  |  |  |  |  | MIC [1, 8]: 0.4 µg/mL (≈ 0.719 µM); MIC [4, 9]: 6.25 µg/mL (≈ 11.2 µM)
12 | CO/N=C(\C(=O)N[C@@H]1C(=O)N2C(C(=O)[O-])=C(/C=C\c3c(Cl)ncnc3Cl)CS[C@H]12)c1csc(N)n1.[Na+] [Example 29 (Z), Sodium 7β-[(Z)-2-(2-aminothiazol-4-yl)-2-(methoxyimino)acetamido]-3-[(Z)-2-(4,6-dichloropyrimidin-5-yl)vinyl]-3-cephem-4-carboxylate] |  |  |  | 0.8 µg/mL | 1.56 µg/mL | 3.13 µg/mL | 7.56 µg/mL | 3.13 µg/mL | 
13 | CN(C)C(=O)OC/C=C\C1=C(C(=O)[O-])N2C(=O)C(NC(=O)/C(=N\O)c3csc(N)n3)[C@H]2SC1.[Na+] (stereo partly shown) [Example 30, Sodium 7-[(Z)-2-(2-aminothiazol-4-yl)-2-hydroxyiminoacetamido]-3-[(Z)-3-(N,N-dimethylcarbamoyloxy)-1-propenyl]-3-cephem-4-carboxylate] |  |  |  | 0.05 µg/mL | 0.2 µg/mL | 0.2 µg/mL | 0.2 µg/mL | 0.05 µg/mL | 
14 | Nc1nc(/C(=N/O)C(=O)NC2C(=O)N3C(C(=O)O)=C(/C=C\COC(=O)N4CCOCC4)CSC23)cs1 (stereo not shown) [Example 32, Sodium 7-[(Z)-2-(2-aminothiazol-4-yl)-2-hydroxyiminoacetamido]-3-[(Z)-3-(1-morphorinylcarbonyloxy)-1-propenyl]-3-cephem-4-carboxylate] | 0.2 µg/mL | 0.2 µg/mL | 0.1 µg/mL |  |  |  |  |  | 
15 | CNC(=O)OC/C=C\C1=C(C(=O)[O-])N2C(=O)C(NC(=O)/C(=N\O)c3csc(N)n3)[C@H]2SC1.[Na+] (stereo partly shown) [Example 33, Sodium 7-[(Z)-2-(2-aminothiazol-4-yl)-2-hydroxyiminoacetamido]-3-[(Z)-3-(N-methylcarbamoyloxy)-1-propenyl]-3-cephem-4-carboxylate] |  |  |  | ≤ 0.006 µg/mL | 0.1 µg/mL | 0.025 µg/mL | 0.012 µg/mL | 0.025 µg/mL | 
16 | CNC(=O)OC/C=C\C1=C(C(=O)O)N2C(=O)C(NC(=O)/C(=N\OC)c3csc(N)n3)C2SC1 (stereo not shown) [Example 38] | 0.8 µg/mL (≈ 1.61 µM) | 0.2 µg/mL (≈ 0.403 µM) | 0.05 µg/mL (≈ 0.101 µM) |  |  |  |  |  | MIC [1, 8]: 0.012 µg/mL (≈ 0.0242 µM); MIC [4, 9]: 0.05 µg/mL (≈ 0.101 µM)
17 | CC(C)NC(=O)OC/C=C\C1=C(C(=O)[O-])N2C(=O)C(NC(=O)/C(=N\O)c3csc(N)n3)[C@H]2SC1.[Na+] (stereo partly shown) [Example 40, Sodium 7-[(Z)-2-(2-aminothiazol-4-yl)-2-hydroxyiminoacetamido]-3-[(Z)-3-(N-isopropylcarbamoyloxy)-1-propenyl]-3-cephem-4-carboxylate] |  |  |  | 0.025 µg/mL | 0.2 µg/mL | 0.1 µg/mL | 0.1 µg/mL | 0.05 µg/mL | 
18 | CCNC(=O)OC/C=C\C1=C(C(=O)[O-])N2C(=O)C(NC(=O)/C(=N\O)c3csc(N)n3)[C@H]2SC1.[Na+] (stereo partly shown) [Example 42, Sodium 7-[(Z)-2-(2-aminothiazol-4-yl)-2-hydroxyiminoacetamido]-3-[(Z)-3-(N-ethylcarbamoyloxy)-1-propenyl]-3-cephem-4-carboxylate] |  |  |  | ≤ 0.006 µg/mL | 0.1 µg/mL | 0.05 µg/mL | 0.05 µg/mL | 0.05 µg/mL | 
19 | Nc1nc(/C(=N/O)C(=O)NC2C(=O)N3C(C(=O)[O-])=C(/C=C\COC(=O)NCCCl)CS[C@H]23)cs1.[Na+] (stereo partly shown) [Example 44, Sodium 7-[(Z)-2-(2-aminothiazol-4-yl)-2-hydroxyiminoacetamido]-3-[(Z)-3-(N-(2-chloroethyl)carbamoyloxy)-1-propenyl]-3-cephem-4-carboxylate] |  |  |  | ≤ 0.006 µg/mL | 0.1 µg/mL | 0.05 µg/mL | 0.05 µg/mL | 0.05 µg/mL | 
20 | C=CCNC(=O)OC/C=C\C1=C(C(=O)O)N2C(=O)C(NC(=O)/C(=N\O)c3csc(N)n3)C2SC1 (stereo not shown) [Example 46, Sodium 7-[(Z)-2-(2-aminothiazol-4-yl)-2-hydroxyiminoacetamido]-3-[(Z)-30(N-allylcarbamoyloxy)-1-propenyl] -3-cephem-4-carboxylate] | 0.2 µg/mL | 0.1 µg/mL | 0.05 µg/mL |  |  |  |  |  | MIC [1, 8]: 0.012 µg/mL; MIC [4, 9]: 0.05 µg/mL
21 | CO/N=C(\C(=O)N[C@@H]1C(=O)N2C(C(=O)[O-])=C(/C=C\C3CCCO3)CS[C@H]12)c1csc(N)n1.[Na+] (stereo partly drawn) [Example 49, Sodium 7β-[(Z)-2-aminothiazol-4-yl-2-methoxyiminoacetamido]-3-[(Z)-2-(tetrahydrofuran-2-yl)vinyl]-3-cephem-4-carboxylate] |  |  |  | 0.1 µg/mL | 1.56 µg/mL | 0.8 µg/mL | 0.4 µg/mL | 0.05 µg/mL | 
22 | CO/N=C(\C(=O)N[C@@H]1C(=O)N2C(C(=O)[O-])=C(/C=C/C3CCC(=O)O3)CS[C@H]12)c1csc(N)n1.[Na+] (stereo partly drawn) [Example 52, Sodium 7β-[(Z)-2-aminothiazol-4-yl-2-methoxyiminoacetamido]-3-[(E)-2-(5-oxotetrahydrofuran 2-yl)vinyl]-3-cephem-4-carboxylate] |  |  |  | ≤ 0.006 µg/mL | 0.4 µg/mL | 0.1 µg/mL | 0.025 µg/mL | 0.012 µg/mL | 
23 | CO/N=C(\C(=O)N[C@@H]1C(=O)N2C(C(=O)OCOC(=O)C(C)(C)C)=C(/C=C/C3CCC(=O)O3)CS[C@H]12)c1csc(N)n1 (stereo partly drawn) [Example 53, Pivaloyloxymethyl 7β-[(Z)-2-aminothiazol-4-yl-2-methoxyiminoacetamido]-3-[(E)-2-(5 oxotetrahydrofuran-2-yl)vinyl]-3-cephem-4-carboxylate] | 0.1 µg/mL (≈ 0.165 µM) | 0.025 µg/mL (≈ 0.0411 µM) | 0.025 µg/mL (≈ 0.0411 µM) |  |  |  |  |  | MIC [1, 8]: 0.025 µg/mL (≈ 0.0411 µM); MIC [4, 9]: 0.05 µg/mL (≈ 0.0823 µM)
24 | CC(C)(C)C(=O)OCOC(=O)C1=C(/C=C\C2CC2)CS[C@@H]2[C@H](NC(=O)/C(=N\O)c3csc(N)n3)C(=O)N12 [Example 58, Pivaloyloxymethyl 7-62-[(Z)-2-(2-aminothiazol-4-yl)-2-hydroxyiminoacetamido]-3-[(Z)-cyclopropylvinyl]-3-cephem-4-carboxylate] | 0.1 µg/mL (≈ 0.182 µM) | 0.4 µg/mL (≈ 0.728 µM) | 0.2 µg/mL (≈ 0.364 µM) |  |  |  |  |  | MIC [1, 8]: 0.1 µg/mL (≈ 0.182 µM); MIC [4, 9]: 0.8 µg/mL (≈ 1.46 µM)
